Results as given in patent US20250230193A1, “CYCLIC COMPOUND HAVING SELECTIVE KRAS INHIBITORY EFFECT ON HRAS AND NRAS” (CHUGAI SEIYAKU KABUSHIKI KAISHA, priority 2022, published 2025).
Where a SMILES comes first, the peptide text is derived from it. Bridges are numbered along the chain shown (N, C = ends). [ ]: non-standard residue; d: D form. The star is where a group is joined. hPhe(3,5-F2-4-CF3) = N[C@@H](CCc1cc(F)c(C(F)(F)F)c(F)c1)C(=O)O; hPhe(3-Cl-4-CF3) = N[C@@H](CCc1ccc(C(F)(F)F)c(Cl)c1)C(=O)O; NPrPhe(4-CF3) = CCCN[C@@H](Cc1ccc(C(F)(F)F)cc1)C(=O)O; NEtPhe(4-CF3) = CCN[C@@H](Cc1ccc(C(F)(F)F)cc1)C(=O)O; NMeGly(cPent) = CN[C@H](C(=O)O)C1CCCC1; NMeD = CN[C@@H](CC(=O)O)C(=O)O; Ac4c(3-oxa) = NC1(C(=O)O)COC1; NMeL = CN[C@@H](CC(C)C)C(=O)O; Morpholide = C1CN(*)CCO1; Aze = O=C(O)[C@@H]1CCN1; Ac3c = NC1(C(=O)O)CC1; Sar = CNCC(=O)O

Tests used:
[1] = biological target: GDP-bound HRAS wild-type protein (Homo sapiens, UniProt P01112); assay: Binding to HRAS by surface plasmon resonance (SPR), Single Cycle Kinetics; details: SPR; for HRAS/KRAS (ratio of KD value for HRAS to KD value for KRAS) / HRAS/KRAS (ratio of KD value with respect to HRAS to KD value with respect to KRAS): GDP-bound HRAS wild-type vs GDP-bound KRAS wild-type
[2] = biological target: GDP-bound NRAS wild-type protein (Homo sapiens, UniProt P01111); assay: Binding to NRAS by surface plasmon resonance (SPR), Single Cycle Kinetics; details: SPR; for NRAS/KRAS (ratio of KD value for NRAS to KD value for KRAS) / NRAS/KRAS (ratio of KD value with respect to NRAS to KD value with respect to KRAS): GDP-bound NRAS wild-type vs GDP-bound KRAS wild-type
Sequence of GDP-bound NRAS wild-type protein (P01111 whole entry): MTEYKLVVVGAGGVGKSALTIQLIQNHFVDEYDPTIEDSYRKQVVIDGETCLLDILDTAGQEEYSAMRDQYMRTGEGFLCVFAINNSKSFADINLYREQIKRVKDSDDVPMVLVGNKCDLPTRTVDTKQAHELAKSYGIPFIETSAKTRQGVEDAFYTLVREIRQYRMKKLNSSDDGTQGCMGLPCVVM

Sequence of GDP-bound HRAS wild-type protein (P01112 whole entry): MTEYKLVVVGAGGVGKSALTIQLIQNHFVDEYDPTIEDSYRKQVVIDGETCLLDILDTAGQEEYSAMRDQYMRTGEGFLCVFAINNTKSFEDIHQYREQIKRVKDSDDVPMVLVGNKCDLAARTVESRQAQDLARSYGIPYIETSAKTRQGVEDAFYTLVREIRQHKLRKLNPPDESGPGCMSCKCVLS

Compound: CCO[C@@H]1C[C@H]2C(=O)NC3(CC(C)(C)C3)C(=O)N(C)[C@@H](C3CCCC3)C(=O)N(C)[C@H](C(=O)N(C)C)CC(=O)N(C)[C@H]3CCCC/C=C/c4ccc(cc4)C[C@@H](C(=O)N(C)CC(=O)N[C@@H](CCc4ccc(C(F)(F)F)c(OC)c4)C(=O)N2C1)N1CC/C=C\C[C@@H](C1=O)N(C)C(=O)CN(C)C(=O)[C@H]([C@@H](C)CC)NC3=O [PP1832]
- HRAS/KRAS (ratio of KD value for HRAS to KD value for KRAS) ([1]; KD ratio): B (a compound having 3 or more and less than 10 is denoted as B)
- NRAS/KRAS (ratio of KD value for NRAS to KD value for KRAS) ([2]; KD ratio): B (a compound having 3 or more and less than 10 is denoted as B)

Compound: CCC[C@@H]1C[C@H]2C(=O)NC3(CCCC3)C(=O)N(C)[C@@H](C3CCCC3)C(=O)N(C)[C@H](C(=O)N(C)C)CC(=O)N(C)[C@@H](CC(C)C)C(=O)N[C@@H]([C@@H](C)CC)C(=O)N(C)CC(=O)N(C)[C@H]3C/C=C\CCN(C3=O)[C@@H](Cc3ccc(C)cc3)C(=O)N(C)CC(=O)N[C@@H](CCc3cc(F)c(C(F)(F)F)c(F)c3)C(=O)N2C1 [PP2193]
- HRAS/KRAS (ratio of KD value with respect to HRAS to KD value with respect to KRAS) [1]: A (a compound having 10 or more and less than 20 is denoted as A)
- NRAS/KRAS (ratio of KD value with respect to NRAS to KD value with respect to KRAS) [2]: A (a compound having 10 or more and less than 20 is denoted as A)

Compound: CCCN1C(=O)[C@@H]2CCN2C(=O)CN(C)C(=O)[C@H]([C@@H](C)CC)NC(=O)[C@H](CC(C)C)N(C)C(=O)C[C@@H](C(=O)N2CCOCC2)N(C)C(=O)[C@H](C2CCCC2)N(C)C(=O)C2(COC2)NC(=O)[C@@H]2CCCN2C(=O)[C@H](CCc2cc(F)c(C(F)(F)F)c(F)c2)NC(=O)CN(C)C(=O)[C@@H]1Cc1ccc(C(F)(F)F)cc1 [PP0801] ([NMeL]I[Sar][Aze][NPrPhe(4-CF3)][Sar][hPhe(3,5-F2-4-CF3)]P[Ac4c(3-oxa)][NMeGly(cPent)][NMeD]-Morpholide; lactam N-11)
- HRAS/KRAS (ratio of KD value with respect to GDP-bound HRAS wild-type protein to KD value with respect to KRAS) ([1]; KD ratio HRAS/KRAS): B (a compound having 3 or more and less than 10 is denoted as B)
- NRAS/KRAS (ratio of KD value with respect to GDP-bound NRAS wild-type protein to KD value with respect to KRAS) ([2]; KD ratio NRAS/KRAS): C (A compound having a KD ratio of 0.1 or more and less than 3 is denoted as C)

Compound: CCO[C@@H]1C[C@H]2C(=O)NC3(CCC3)C(=O)N(C)[C@@H](C3CCCC3)C(=O)N(C)[C@H](C(=O)N3CCOCC3)CC(=O)N(C)[C@@H](COC3CC3)C(=O)N[C@@H]([C@@H](C)CC)C(=O)N(C)CC(=O)N(C)[C@H]3CCCCCN(C3=O)[C@@H](Cc3ccc(C(F)(F)F)cc3)C(=O)N(C)CC(=O)N[C@@H](CCc3cc(F)c(C(F)(F)F)c(F)c3)C(=O)N2C1 [PP0852]
- HRAS/KRAS (ratio of KD value with respect to HRAS to KD value with respect to KRAS) ([1]; KD ratio): B (a compound having 3 or more and less than 10 is denoted as B)
- NRAS/KRAS (ratio of KD value with respect to NRAS to KD value with respect to KRAS) ([2]; KD ratio): B (a compound having 3 or more and less than 10 is denoted as B)

Compound: CCCO[C@@H]1C[C@H]2C(=O)NC3(CC(C)(C)C3)C(=O)N(C)[C@@H](C3CCCC3)C(=O)N(C)[C@H](C(=O)N(C)C)CC(=O)N(C)[C@H]3CCCCc4ccc(cc4)C[C@@H](C(=O)N(C)CC(=O)N[C@@H](CCc4ccc(C(F)(F)F)c(OC)c4)C(=O)N2C1)N1CC/C=C\C[C@@H](C1=O)N(C)C(=O)CN(C)C(=O)[C@H]([C@@H](C)CC)NC3=O [PP3077]
- HRAS/KRAS (ratio of KD value with respect to GDP-bound HRAS wild-type protein to KD value with respect to KRAS) ([1]; KD ratio HRAS/KRAS, GDP-bound wild-type proteins): B (a compound having 3 or more and less than 10 is denoted as B)
- NRAS/KRAS (ratio of KD value with respect to GDP-bound NRAS wild-type protein to KD value with respect to KRAS) ([2]; KD ratio NRAS/KRAS, GDP-bound wild-type proteins): A (a compound having 10 or more and less than 20 is denoted as A)

Compound: CC[C@H](C)[C@@H]1NC(=O)[C@H](CC(C)C)N(C)C(=O)C[C@@H](C(=O)N2CCOCC2)N(C)C(=O)[C@H](C2CCCC2)N(C)C(=O)C2(CC2)NC(=O)[C@@H]2CCCN2C(=O)[C@H](CCc2ccc(C(F)(F)F)c(Cl)c2)NC(=O)CN(C)C(=O)[C@H](Cc2ccc(C(F)(F)F)cc2)N(CC)C(=O)CN(C)C(=O)CN(C)C1=O [PP0234] ([NMeL]I[Sar][Sar][NEtPhe(4-CF3)][Sar][hPhe(3-Cl-4-CF3)]P[Ac3c][NMeGly(cPent)][NMeD]-Morpholide; lactam N-11)
- HRAS/KRAS (ratio of KD for GDP-bound HRAS wild-type to KD for KRAS) ([1]; KD ratio HRAS/KRAS): C (A compound having a KD ratio of 0.1 or more and less than 3 is denoted as C)
- NRAS/KRAS (ratio of KD for GDP-bound NRAS wild-type to KD for KRAS) ([2]; KD ratio NRAS/KRAS): B (a compound having 3 or more and less than 10 is denoted as B)

Compound: CCCN(C)C(=O)[C@@H]1CC(=O)N(C)[C@@H](C)C(=O)N[C@@H]([C@@H](C)CC)C(=O)N(C)CC(=O)N(C)[C@H]2C/C=C\CCN(C2=O)[C@@H](Cc2ccc(C(F)(F)F)cc2)C(=O)N(C)CC(=O)N[C@@H](CCc2cc(F)c(C(F)(F)F)c(F)c2)C(=O)N2C[C@H](OCC)C[C@H]2C(=O)NC2(CC(F)(F)C2)C(=O)N(C)[C@@H](C2CCCC2)C(=O)N1C [PP1731]
- HRAS/KRAS (ratio of KD value for HRAS to KD value for KRAS) ([1]; KD ratio): A (a compound having 10 or more and less than 20 is denoted as A)
- NRAS/KRAS (ratio of KD value for NRAS to KD value for KRAS) ([2]; KD ratio): A (a compound having 10 or more and less than 20 is denoted as A)
